{"source": "paper PMC2843921", "about": "(ACS chemical neuroscience, 2010)", "key": {"human μ opioid receptor [1]": {"target": "T1, human μ opioid receptor (Homo sapiens, UniProt P35372)", "T1 sequence (P35372 whole entry)": "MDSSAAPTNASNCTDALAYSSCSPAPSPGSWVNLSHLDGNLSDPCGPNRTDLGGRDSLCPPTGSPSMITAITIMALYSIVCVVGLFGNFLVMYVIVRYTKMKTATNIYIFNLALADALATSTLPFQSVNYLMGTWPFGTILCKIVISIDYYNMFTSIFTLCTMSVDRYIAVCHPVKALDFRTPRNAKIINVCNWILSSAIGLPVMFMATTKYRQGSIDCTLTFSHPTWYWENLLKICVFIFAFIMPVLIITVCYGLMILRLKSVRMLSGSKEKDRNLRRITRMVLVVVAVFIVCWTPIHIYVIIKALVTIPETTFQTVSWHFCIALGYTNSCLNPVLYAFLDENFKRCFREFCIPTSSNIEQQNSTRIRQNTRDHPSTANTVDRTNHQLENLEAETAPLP", "test": "Stimulation of [35S]GTPγS binding, μ", "type": "biochemical", "conditions": "for Emax: read-out: Agonism μ Emax (%)"}, "human δ opioid receptor [2]": {"target": "T2, human δ opioid receptor (Homo sapiens, UniProt P41143)", "T2 sequence (P41143 whole entry)": "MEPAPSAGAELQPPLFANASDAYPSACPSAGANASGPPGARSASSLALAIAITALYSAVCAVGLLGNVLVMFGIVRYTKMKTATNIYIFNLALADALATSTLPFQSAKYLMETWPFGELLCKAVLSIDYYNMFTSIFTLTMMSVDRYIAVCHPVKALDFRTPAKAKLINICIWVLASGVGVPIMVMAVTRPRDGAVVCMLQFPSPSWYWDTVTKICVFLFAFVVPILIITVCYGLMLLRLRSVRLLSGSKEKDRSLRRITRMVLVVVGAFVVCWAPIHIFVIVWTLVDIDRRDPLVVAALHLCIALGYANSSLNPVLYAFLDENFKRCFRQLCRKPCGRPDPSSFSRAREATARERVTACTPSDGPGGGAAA", "test": "Stimulation of [35S]GTPγS binding, δ", "type": "biochemical", "conditions": "for Emax: read-out: Agonism δ Emax (%)"}, "human μ opioid receptor [3]": {"target": "T1, human μ opioid receptor", "test": "Inhibition of DAMGO-stimulated [35S]GTPγS binding, μ", "type": "biochemical", "conditions": "for Antagonism μ Imax (%): in presence of 200 nM DAMGO, NI = No inhibition"}, "human δ opioid receptor [4]": {"target": "T2, human δ opioid receptor", "test": "Inhibition of SNC 80-stimulated [35S]GTPγS binding, δ", "type": "biochemical", "conditions": "in presence of 10 nM SNC 80; NI = No inhibition"}, "MVD": {"tested_on": "MVD", "conditions": "read-out: MVD EC50; cited from earlier work"}, "GPI": {"tested_on": "GPI", "conditions": "read-out: GPI EC50; cited from earlier work"}}, "note": "Counter-ions that a name gives are not always drawn. Non-standard residues stand in square brackets, D forms with d. Residues, ends and D or L forms follow the SMILES beside them. *: point of attachment. Dmt = Cc1cc(O)cc(C)c1C[C@H](N)C(=O)O; dTic = O=C(O)[C@H]1Cc2ccccc2CN1; NHBn = c1ccc(CN*)cc1", "data": [{"compound": "Cc1cc(O)cc(C)c1C[C@H](N)C(=O)N1Cc2ccccc2C[C@H]1C(=O)NCC(=O)NCc1ccc([N+](=O)[O-])cc1", "note": "[Compound 5, TFA·H-Dmt-Tic-Gly-NH-Bzl(pNO2)]", "values": [{"measurement": "EC50", "setting": "human μ opioid receptor [1]", "value": "61 ± 15", "unit": "nM"}, {"measurement": "Emax", "setting": "human μ opioid receptor [1]", "value": "16 ± 2.5", "unit": "%"}, {"measurement": "Emax", "setting": "human δ opioid receptor [2]", "value": "3.1 ± 0.43", "unit": "%"}, {"measurement": "Antagonism μ Imax (%)", "setting": "human μ opioid receptor [3]", "value": "74±6.9", "unit": "%"}, {"measurement": "Antagonism δ Imax (%)", "setting": "human δ opioid receptor [4]", "value": "79±3.8", "unit": "%"}]}, {"compound": "Cc1ccc(CNC(=O)CNC(=O)[C@@H]2Cc3ccccc3CN2C(=O)[C@@H](N)Cc2c(C)cc(O)cc2C)cc1", "note": "[Compound 4, TFA·H-Dmt-Tic-Gly-NH-Bzl(pMe)]", "values": [{"measurement": "EC50", "setting": "human μ opioid receptor [1]", "value": "63 ± 3.5", "unit": "nM"}, {"measurement": "Emax", "setting": "human μ opioid receptor [1]", "value": "34 ± 6.4", "unit": "%"}, {"measurement": "Emax", "setting": "human δ opioid receptor [2]", "value": "0.4 ± 1.43", "unit": "%"}, {"measurement": "inhibition at 25 µM", "setting": "human μ opioid receptor [3]; read-out: Antagonism μ inhibition of DAMGO-stimulated [35S]GTPγS binding (%)", "value": "65 ± 1.1", "unit": "%"}, {"measurement": "Antagonism δ Imax (%)", "setting": "human δ opioid receptor [4]", "value": "86±5.0", "unit": "%"}]}, {"compound": "H-Dmt-Tic-Gly-Ph", "values": [{"measurement": "EC50", "setting": "MVD", "value": 3.02, "unit": "nM"}, {"measurement": "EC50", "setting": "GPI", "value": 2.57, "unit": "nM"}]}, {"compound": "Cc1cc(O)cc(C)c1C[C@H](N)C(=O)N1Cc2ccccc2C[C@H]1C(=O)NCC(=O)NCc1ccc(Cl)cc1", "note": "[Compound 3, TFA·H-Dmt-Tic-Gly-NH-Bzl(pCl)]", "values": [{"measurement": "EC50", "setting": "human μ opioid receptor [1]", "value": "33 ± 2.9", "unit": "nM"}, {"measurement": "Emax", "setting": "human μ opioid receptor [1]", "value": "52 ± 5.5", "unit": "%"}, {"measurement": "Emax", "setting": "human δ opioid receptor [2]", "value": "4.5 ± 0.85", "unit": "%"}, {"measurement": "Antagonism μ Imax (%)", "setting": "human μ opioid receptor [3]", "value": "43±3.3", "unit": "%"}, {"measurement": "Antagonism δ Imax (%)", "setting": "human δ opioid receptor [4]", "value": "93±2.2", "unit": "%"}]}, {"compound": "Cc1cc(O)cc(C)c1C[C@H](N)C(=O)N1Cc2ccccc2C[C@H]1C(=O)NCC(=O)N1CCc2ccccc2C1", "note": "[Compound 8, TFA·H-Dmt-Tic-Gly-1,2,3,4-tetrahydroisoquinoline]", "values": [{"measurement": "Emax", "setting": "human μ opioid receptor [1]", "value": "43 ± 6.6", "unit": "%"}, {"measurement": "Emax", "setting": "human δ opioid receptor [2]", "value": "-1.4 ± 0.14", "unit": "%"}, {"measurement": "Antagonism δ Imax (%)", "setting": "human δ opioid receptor [4]", "value": "99±3.3", "unit": "%"}]}, {"compound": "Cc1cc(O)cc(C)c1C[C@H](N)C(=O)N1Cc2ccccc2C[C@@H]1C(=O)NCC(=O)NCc1ccccc1", "note": "[Compound 2, TFA·H-Dmt-D-Tic-Gly-NH-Bzl] (H-[Dmt]-[dTic]-Gly-NHBn)", "values": [{"measurement": "EC50", "setting": "human μ opioid receptor [1]", "value": "0.9 ± 0.032", "unit": "nM"}, {"measurement": "Emax", "setting": "human μ opioid receptor [1]", "value": "92 ± 4", "unit": "%"}, {"measurement": "EC50", "setting": "human δ opioid receptor [2]", "value": "2.8 ± 0.6", "unit": "nM"}, {"measurement": "Emax", "setting": "human δ opioid receptor [2]", "value": "44 ± 6.1", "unit": "%"}]}, {"compound": "Cc1cc(O)cc(C)c1C[C@H](N)C(=O)N1Cc2ccccc2C[C@H]1C(=O)NCC(=O)NC(c1ccccc1)c1ccccc1", "note": "[Compound 7, TFA·H-Dmt-Tic-Gly-NH-Benzhydryl]", "values": [{"measurement": "EC50", "setting": "human μ opioid receptor [1]", "value": "4.8 ± 0.16", "unit": "nM"}, {"measurement": "Emax", "setting": "human μ opioid receptor [1]", "value": "45 ± 1.2", "unit": "%"}, {"measurement": "Emax", "setting": "human δ opioid receptor [2]", "value": "-1.9 ± 0.17", "unit": "%"}, {"measurement": "Antagonism δ Imax (%)", "setting": "human δ opioid receptor [4]", "value": "100±7.4", "unit": "%"}]}, {"compound": "Cc1cc(O)cc(C)c1C[C@H](N)C(=O)N1Cc2ccccc2C[C@H]1C(=O)NCC(=O)NCc1ccc(N)cc1", "note": "[Compound 6, 2TFA·H-Dmt-Tic-Gly-NH-Bzl(pNH2)]", "values": [{"measurement": "Emax", "setting": "human δ opioid receptor [2]", "value": "13 ± 1", "unit": "%"}, {"measurement": "Antagonism δ Imax (%)", "setting": "human δ opioid receptor [4]", "value": "78±2.7", "unit": "%"}]}]}
